According to US20250115828A1, “INACTIVATING AGENT FOR ENVELOPED VIRUSES” (priority 2022, published 2025):
Where two headings read alike, the source gives them in different places.

How the values were obtained:
[1] = system: Influenza A virus (H1N1, A/PR/8/34) ATCC VR-1469; assay: Anti-influenza virus verification test (focus assay on MDCK cells); assay type: cell-based; conditions: for Evaluation result (Δ LOG (FFU/mL) class) / Minimum inactivation concentration: Influenza virus; for Minimum inactivation concentration: minimum concentration at which Δ LOG (FFU/mL) is 3 or more; for inactivation effect in the presence of hardness components (in words): Table 5: influenza virus, 4 °DH, contact 10 min
[2] = system: Betacoronavirus 1 (OC43) ATCC VR-1558; assay: Anti-human coronavirus verification test (TCID50 on HCT-8 cells); assay type: cell-based
[3] = system: Pseudomonas syringae phage ϕ6 (NBRC 105899); assay: Anti-bacteriophage ϕ6 verification test (plaque assay); assay type: cell-based; conditions: Bacteriophage Φ6; hardness of water 0 °DH; contact time 10 min; minimum concentration at which Δ LOG (PFU/mL) is 3 or more
[4] = Critical micelle concentration at 25° C. by pyrene fluorescence intensity ratio I1/I3; assay type: physicochemical; conditions: ion exchange water
Procedure: A critical micelle concentration of component (a) or (a′) at 25° C. was measured by the method below.
A 1×10^−3 mol/L ethanol solution of pyrene (FUJIFILM Wako Pure Chemical Corporation) was prepared in a brown screw cap tube, and 5 μl of the solution was placed in a screw cap tube (No. 3) and dried with dry air. 5 mL of an aqueous solution of component (a) or (a′) to be measured (prepared with ion exchange water) was added thereto and processed with an ultrasonic cleaner for 15 minutes, and using this, fluorescence spectrum measurements were performed with a fluorescence spectrophotometer (Fluorescence Spectrophotometer F-7000 (manufactured by Hitachi High-Tech Corporation)). Fluorescence intensities I1 and I3 at wavelengths λ1 of 373 nm and λ3 of 384 nm were measured under the measurement conditions below to calculate fluorescence intensity ratio I1/I3.
A graph was prepared on which the horizontal axis plots a concentration of component (a) or (a′) and the vertical axis plots a fluorescence intensity ratio I1/I3, at each concentration, and a surfactant concentration at the midpoint between the maximum value and the minimum value of I1/I3 was taken as the critical micelle concentration.
Excitation wavelength: 339 nm, slit on the excitation side: […], slit on the fluorescence side: […], scanning rate: 60 nm/min, liquid temperature: 25° C., measurement range: 350 to 400 nm

[5] = Krafft point measurement with rhodamine 6G; assay type: physicochemical; conditions: 0.2 mass % in ion exchange water
Procedure: A krafft point of component (a) or (a′) was measured by the method below.
A solution obtained by diluting component (a) or (a′) with ion exchange water to attain a total amount of 5 mL and a concentration of 0.2 mass % was prepared and placed in a glass test tube, and the fluorescent dye rhodamine 6G (FUJIFILM Wako Pure Chemical Corporation) was then added to attain a final concentration of 0.02 mM. After the test tube was placed in an ice bath to condition a temperature at 5° C., the temperature was raised at a temperature rise rate of 0.5° C./min, and a temperature at which the solution emitted fluorescence was taken as the krafft point. Component (a) or (a′) which had emitted fluorescence at 5° C. was considered to have a krafft point of less than 5° C.

[6] = 100 ppm, hardness of water 0 °DH, contact time 0.5 min
[7] = 100 ppm, hardness of water 0 °DH, contact time 1 min
[8] = 100 ppm, hardness of water 0 °DH, contact time 5 min
[9] = 100 ppm, hardness of water 0 °DH, contact time 10 min
[10] = hardness of water 0 °DH, contact time 10 min
[11] = Human coronavirus, hardness of water 0 °DH, contact time 10 min, […]
[12] = 500 ppm, hardness of water 4 °DH, contact time 10 min

Row | Compound | Evaluation result (Δ LOG (FFU/mL) class) [1, 6] | Evaluation result (Δ LOG (FFU/mL) class) [1, 7] | Evaluation result (Δ LOG (FFU/mL) class) [1, 8] | Evaluation result (Δ LOG (FFU/mL) class) [1, 9] | Minimum inactivation concentration [1, 10] [ppm] | Minimum inactivation concentration [2] [ppm] | Minimum inactivation concentration [3] [ppm] | critical micelle concentration (25° C.) [4] [mol/L] | Minimum inactivation concentration [2, 11] | krafft point [5] [°C] | Evaluation result (Δ LOG (FFU/mL) class) [1, 12] | inactivation effect in the presence of hardness components (in words) ([1]; 500 ppm) | inactivation effects on the enveloped virus by short-time contact (in words) ([1]; Table 4: influenza virus, 100 ppm, 0 °DH, contact 0.5 to 10 min, compared to comparative examples 5 and 6)
1 | CCCCC(CC)COC(=O)CC(C(=O)OCC(CC)CCCC)S(=O)(=O)[O-].[Na+] (stereo not shown) [(a′-1), sodium di(2-ethylhexyl)sulfosuccinate] | 1 (a Δ LOG (FFU/mL) of the infectious titers of less than 1) | 1 (a Δ LOG (FFU/mL) of the infectious titers of less than 1) | 1 (a Δ LOG (FFU/mL) of the infectious titers of less than 1) | 2 (a Δ LOG (FFU/mL) of 1 or more and less than 2) | 250 | >250 | 250 | 0.0028 | – | – | – | – | –
2 | CCCCCCCCCCCCCCCCOS(=O)(=O)[O-].[Na+] [(a′-3), sodium alkyl sulfate with 16 carbons] | – | – | – | – | >500 | – | >500 | 0.00045 | >>2000 ppm | 40 | – | – | –
3 | CCCCCCCCCCCCOS(=O)(=O)[O-].[Na+] [(a′-4), sodium alkyl sulfate with 12 carbons] | – | – | – | – | >500 | – | >500 | 0.0082 | >2000 ppm | – | – | – | –
4 | CCCCCCCC/C=C\CCCCCCCC(=O)[O-].[K+] [(a′-5), potassium oleate] | – | – | – | – | – | – | – | 0.0015 | – | – | 1 (a Δ LOG (FFU/mL) of the infectious titers of less than 1) | insufficient inactivation effect | –
5 | sodium di(2-propylheptyl)sulfosuccinate [(a-1)] | 4 (a Δ LOG (FFU/mL) of 3 or more) | 4 (a Δ LOG (FFU/mL) of 3 or more) | 4 (a Δ LOG (FFU/mL) of 3 or more) | 4 (a Δ LOG (FFU/mL) of 3 or more) | 50 | – | 10 | 0.00035 | 100 ppm | – | 4 (a Δ LOG (FFU/mL) of 3 or more) | high inactivation effects | high inactivation effects
